{
  "source": "patent US10137239B2",
  "about": "“Systems and methods for monitoring time based photo active agent delivery or photo active marker presence” (Avedro, Inc., priority 2011, dated 2018)",
  "assay": "Effect of a quenching agent on Riboflavin fluorescence in the eye after Riboflavin pre-soak",
  "design": "species or system porcine",
  "conditions": "1% ascorbic acid drops for 5, 10, 15 min after 30 min pre-soak with 0.1% Riboflavin-5-phosphate in saline; control distilled water; FIGS. 14, 15A, 15B",
  "protocol": "In an experimental setup, the Galilei Dual Scheimpflug Analyzer from Ziemer was used to perform experiments to detect the presence of Riboflavin in porcine corneas through a filter in front of one of the detectors in the Scheimpflug analyzer. The Dual Scheimpflug Analyzer has two detectors that rotate 180° taking several spokes (ranging from 16 to 60 spokes) of the corneal tissue illuminated by 470 nm light through a slit lamp aperture.\nA Straw colored filter (Cinegel, Rosco) is used to filter the exciting light (i.e., the 470 nm light), while allowing the fluorescence (i.e., the 525 nm light) to reach the detector. This is illustrated by the graph shown in FIG. 11B, which illustrates the transmission spectrum for the Straw colored filter utilized.\nHowever, as discussed above, several different substances can be utilized as quenching agents to inhibit the photo-activation of a cross-linking agent, or to degrade the cross-linking agent such that it is no longer photo-active. […] After the pre-soak, the eye was placed in front of the Scheimpflug analyzer and another image (or series of images) was captured to determine the distribution of Riboflavin based on the detected pattern of fluorescence within the cornea. […]\nTo analyze the effects described above, images from the Scheimpflug image capture system were exported and analyzed. […]",
  "data": [
    {"smiles": "O=C1O[C@H]([C@@H](O)CO)C(O)=C1O", "note": "[ascorbic acid]", "values": [
      {"measurement": "maximum fluorescence intensity observed with the Scheimpflug imager", "result": "considerably decreases the maximum fluorescence intensity"}
    ]}
  ]
}
